{
  "source": "patent US20240226017A1",
  "about": "“ERODIBLE TABLET” (Eli Lilly and Company, priority 2021, published 2024)",
  "key": {"[1]": {"set-up": "species or system cynomolgus monkeys", "conditions": "cynomolgus monkey, in vivo, po", "method": "High resolution liquid chromatography/mass spectrometry (HR-LC/MS) is used to measure the concentrations of Compound 2 in cynomolgus monkey plasma. Standards and controls are prepared in cynomolgus monkey plasma using Compound 2, and any dilutions required to bring samples into the quantitative range are also performed in control cynomolgus monkey plasma. To control assay variability, an IS is added to all the standards and samples.\nFor Studies with Examples 14, 15, 16, 17, 18, 19: Compound 2 and the IS are extracted from monkey plasma (50 μL) by protein precipitation using isopropyl alcohol and methanol (50:50 v/v). The samples are then centrifuged (4000 rpm for 10 minutes) and the supernatant is transferred to a Siricco Protein Precipitation Plate. After centrifugation (4000 rpm for 20 minutes), the samples are loaded on a Sep-Pak tC18 SPE microelution plate that is conditioned with 2% formic acid in water. […]\nPharmacokinetic (PK) parameters of Compound 2 are determined after a single 10-mg oral dose of Compound 2 in different formulations to male and female cynomolgus monkeys. […] Plasma concentrations of Compound 2 are detected through 504 hours post-dose."}, "[2]": {"conditions": "human, in vivo", "method": "A multiple-ascending dose study is conducted to study the safety, tolerability, and pharmacokinetics of erodible tablets containing Compound 2 administered as 3 consecutive, once-daily oral doses in healthy participants. Tablets are prepared having the composition set forth in Table 18 below using a direct compression process as described for Example 22 in Table 7 above. Average solid fraction of tablets was 0.90. The Compound 2 oral doses for this study are summarized in the following 4 “dose cohorts”: • Cohort 1, 4-mg dose: 1 tablet of 4 mg Compound 2+300 mg SNAC • Cohort 2, 8-mg dose:2 tablets of 4 mg Compound 2+300 mg SNAC • Cohort 3, 12-mg dose: 1 tablet of 12 mg Compound 2+300 mg SNAC • Cohort 4, 24-mg dose:2 tablets of 12 mg Compound 2+300 mg SNAC Sufficient participants are randomly assigned to study intervention to ensure approximately 10 evaluable participants (8 receiving Compound 2 and 2 receiving placebo) from each of 4 dose cohorts complete the study. In each cohort, eligible participants are randomly assigned to receive 3 once-daily doses of either Compound 2 or placebo. Data for the 4 cohorts are provided in Table 18 below, along with a comparison to IV data from a separate study having similar protocol design and conducted at the same clinical site."}, "in vivo [3]": {"assay": "in vivo", "set-up": "species or system cynomolgus monkeys", "conditions": "male, cynomolgus monkey, iv", "method": "Plasma concentrations of Compound 1 are determined by a LC/MS method that measures intact Compound 1, peptide plus linked time extension. For each assay, Compound 1 and an IS, are extracted from 100% monkey plasma. This procedure involves initially thoroughly mixing the plasma sample (50 μl) with acetonitrile:water:formic acid (50:50:0.1; 25 μl) plus 2-propanol:methanol (50:50; 250 μl). Two distinct layers are formed upon centrifugation with Compound 1 and the IS contained in the supernatant layer. After moving 200-μL of the supernatant layer to the Sirocco Protein Precipitation plate, the plate is centrifuged (conditions). Next 600-μL of Water:Formic (100:2; 600 μl) are added to each well of the Sirocco plate, and the plate is vortexed, sealed, and centrifuged. After SPE plate conditioning, the sample from the Sirocco plate (700 μl) is transferred to a Waters, SPE plate, and centrifuged. The SPE plate, after washing, is eluted with acetonitrile:formic acid (100:2; 80 μl) into Invitrosol:water:water:formic acid 100:2 (35:15:50; 100 μl). The final sample (25 μl) is loaded onto a Waters, ACQUITY UPLC BEH C18 Column, 130 Å, (2.1 mm×100 mm, 1.7 μm). The column effluent is injected into a Sciex API 5500 mass spectrometer for detection and quantitation. Male cynomolgus monkeys are administered a single intravenous dose (0.05 mg/kg) or oral formulation (10 mg/tablet) of Compound 1. […]"}, "in vivo [4]": {"assay": "in vivo", "set-up": "species or system cynomolgus monkeys", "conditions": "cynomolgus monkey, iv", "method": "Plasma concentrations of Compound 2 are determined by a LC/MS method. Compound 2 and an internal standard (IS) are extracted from 100% monkey plasma (25 μL) using 50 mM ammonium bicarbonate. After centrifugation, the supernatant is transferred and 2B10 biotinylated antibody along with 5C9 biotinylated antibody (5 μL each) are added. The samples are then centrifuged, T1 Streptavidin beads are added (20 μL) for 30 minutes, and the analyte is eluted from the beads with 30% acetonitrile with 5% formic acid in water followed by mixing. A final sample (10 μL) containing 31% acetonitrile in 10% formic acid is loaded onto a Supelco Analytical Discovery BIO Wide Pore C5-3, 5 cm×0.1 mm for LC/MS analysis. The plasma PK of Compound 2 is evaluated in male cynomolgus monkeys following a single IV dose (50 nmol/kg). Blood samples are collected over 504 hours. Plasma is harvested from blood samples by centrifugation and stored frozen until analysis. Plasma concentrations of Compound 2 are detected through 504 hours post-dose. PK parameters for one animal are extrapolated using the concentration versus time data up to 72 hours post-dose."}},
  "note": "Where two headings read alike, the source gives them in different places. Marks after values point to notes of the source that are not given here.",
  "data": [
    {"smiles": "CC[C@H](C)[C@H](NC(=O)[C@H](CC(C)C)NC(=O)[C@](C)(Cc1ccc(O)cc1)NC(=O)[C@@H](CCC(=O)O)NC(=O)[C@@H](NC(=O)[C@H](Cc1ccccc1)NC(=O)[C@H](CCC(=O)O)NC(=O)C(C)(C)NC(=O)[C@H](CCC(N)=O)NC(=O)[C@H](C)NC(=O)[C@H](CCCCNC(=O)COCCOCCNC(=O)COCCOCCNC(=O)CC[C@H](NC(=O)CCCCCCCCCCCCCCCCC(=O)O)C(=O)O)NC(=O)[C@H](CCCN)NC(=O)[C@H](CC(=O)O)NC(=O)[C@H](CC(C)C)NC(=O)[C@](C)(CC(C)C)NC(=O)[C@@H](NC(=O)[C@H](CO)NC(=O)[C@H](Cc1ccncc1)NC(=O)[C@H](CC(=O)O)NC(=O)[C@H](CO)NC(=O)[C@@H](NC(=O)[C@](C)(Cc1ccccc1F)NC(=O)[C@@H](NC(=O)CNC(=O)[C@H](CCC(=O)O)NC(=O)C(C)(C)NC(=O)[C@@H](N)Cc1ccc(O)cc1)[C@@H](C)O)[C@@H](C)O)[C@@H](C)CC)[C@@H](C)CC)C(=O)N[C@@H](CCC(=O)O)C(=O)NCC(=O)NCC(=O)N1CCC[C@H]1C(=O)N[C@@H](CO)C(=O)N[C@@H](CO)C(=O)NCC(=O)N[C@@H](C)C(=O)N1CCC[C@H]1C(=O)N1CCC[C@H]1C(=O)N1CCC[C@H]1C(=O)N[C@@H](CO)C(N)=O", "note": "[Compound 2, Y-Aib-EGT-αMeF(2F)-TSD-4Pal-SI-αMeL-LD-Orn-K((2-[2-(2-Amino-ethoxy)-ethoxy]-acetyl)2-(γ-Glu)-CO-(CH2)16-CO2H)AQ-Aib-EFI-(D-Glu)-αMeY-LIEGGPSSGAPPPS-NH2]", "values": [
      {"measurement": "Plasma concentrations detected through (post-dose)", "setting": "[1]", "value": 504, "unit": "h"},
      {"measurement": "Oral Bioavailability Based on AUC (0-168)", "setting": "[2]; 0.5 mg", "value": 100, "unit": "%"},
      {"measurement": "Oral Bioavailability Based on AUC (0-∞)", "setting": "[2]; 0.5 mg", "value": 100, "unit": "%"},
      {"measurement": "Dose-Normalized AUC(0-168)", "setting": "[2]; iv", "value": "22800^e ^ ng · h/mL · mg"},
      {"measurement": "Dose-Normalized AUC(0-∞)", "setting": "[2]; iv", "value": "49200^e ^ ng · h/mL · mg"},
      {"measurement": "clearance", "setting": "in vivo [3]; CL", "value": 13, "unit": "mL/day/kg"},
      {"measurement": "half-life", "setting": "in vivo [3]; T1/2", "value": 96, "unit": "h"},
      {"measurement": "Plasma concentrations detected through (post-dose)", "setting": "in vivo [4]", "value": 504, "unit": "h"},
      {"measurement": "AUC0-inf", "setting": "in vivo [4]; male, 50 nmol/kg", "value": 84.232, "unit": "µM·h"},
      {"measurement": "AUC(0-inf)", "setting": "in vivo [4]; male, 50 nmol/kg", "value": 84.2, "unit": "µM·h"},
      {"measurement": "CL", "setting": "in vivo [4]; male, 50 nmol/kg", "value": 14.2, "unit": "mL/day/kg"},
      {"measurement": "clearance", "setting": "in vivo [4]; male, 50 nmol/kg", "value": 14.2, "unit": "mL/day/kg"},
      {"measurement": "Cmax", "setting": "in vivo [4]; male, 50 nmol/kg, Cmax", "value": 1050, "unit": "nM"},
      {"measurement": "half-life", "setting": "in vivo [4]; male, 50 nmol/kg, T1/2", "value": 84, "unit": "h"}
    ]}
  ]
}
